Where two headings read alike, the source gives them in different places. Where only a bound is given, the exact number is not on record here.

Results on eight compounds are retold here after patent EP4617278A1, “NUCLEOTIDE ANALOG, AND COMPOSITION AND USE THEREOF” (priority 2022, dated 2024).

In the experiment the test system is RSV A2 virus. Briefly: RSV CPE assay. The following applies: read-out: RSV A2 (Hep-2 cell) EC50.
The mark [1] stands for this setting: human respiratory syncytial virus, HEp-2, 120 h.
[2] abbreviates: HEp-2 cells, RSV A2 virus, 5 days, CCK8.

Regarding `CCC(CC)COC(=O)C[C@H](N[P@](=O)(OC[C@H]1O[C@@](C#N)(c2ccc3c(N)ncnn23)[C@H](OC(=O)C(C)C)[C@@H]1OC(=O)C(C)C)Oc1ccccc1)C(=O)OCC(CC)CC` [Compound 62b, (2R,3R,4R,5R)-2-(4-aminopyrrolo[2,1-f][1,2,4]triazin-7-yl)-2-cyano-5-((((S)-(((S)-1,4-bis(2-ethylbutoxy)-1,4-dioxobutan-2-yl)amino)(phenoxy)phosphoryl)oxy)methyl)tetrahydrofuran-3,4-diyl bis(2-methylpropionate)], under setting [1], the EC50 is less than 100 nM. On to “(2R,3R,4R,5R)-2-(4-aminopyrrolo[2,1-f][1,2,4]triazin-7-yl)-2-cyano-5-((((R)-(((S)-1,4-dicyclobutoxy-1,4-dioxobutan-2-yl)amino)(phenoxy)phosphoryl)oxy)methyl)tetrahydrofuran-3,4-diyl dipropionate [Compound 56a]”, for which the EC50 under setting [2] lay within 200 to 500 nM. Turning to `CCC(CC)COC(=O)[C@H](Cc1ccccc1)N[P@](=O)(OC[C@H]1O[C@@](C#N)(c2ccc3c(N)ncnn23)[C@H](OC(=O)C(C)C)[C@@H]1OC(=O)C(C)C)Oc1ccc(C(C)(C)C)cc1` [Compound 53b, (2R,3R,4R,5R)-2-(4-aminopyrrolo[2,1-f][1,2,4]triazin-7-yl)-2-cyano-5-((((((S)-1-(2-ethylbutoxy)-1-oxo-3-phenylpropan-2-yl)amino)((S)-4-tert-butylphenoxy)phosphoryl)oxy)methyl)tetrahydrofuran-3,4-diyl bis(2-methylpropionate)], the EC50 under setting [2] was less than 100 nM. For the compound `CCC(CC)COC(=O)[C@H](C)N[P@](=O)(OCOC(=O)OC(C)C)OC[C@H]1O[C@@](C#N)(c2ccc3c(N)ncnn23)[C@H](OC(=O)C(C)C)[C@@H]1OC(=O)C(C)C` [Compound 7a, (2R,3R,4R,5R)-2-(4-aminopyrrolo[2,1-f][1,2,4]triazin-7-yl)-2-cyano-5-((((R)-(((S)-1-(2-ethylbutoxy)-1-oxopropan-2-yl)amino)(((isopropoxycarbonyl)oxy)methoxy)phosphoryl)oxy)methyl)tetrahydrofuran-3,4-diyl bis(2-methylpropionate)], the concentration for a half-maximal effect (EC50) under setting [1] fell in the range of 200 to 500 nM. The same measure, in the same setting: next, `CC(C)C(=O)O[C@H]1[C@@H](OC(=O)C(C)C)[C@](C#N)(c2ccc3c(N)ncnn23)O[C@@H]1COP(=O)(OCCSC(=O)C(C)(C)C)Oc1ccc(C(C)(C)C)cc1` (mixture of isomers) [Compound 27, (2R,3R,4R,5R)-2-(4-aminopyrrolo[2,1-f][1,2,4]triazin-7-yl)-5-((((4-tert-butylphenoxy)(2-(pivaloylthio)ethoxy)phosphoryl)oxy)methyl)-2-cyanotetrahydrofuran-3,4-diyl bis(2-methylpropionate)]: 200 to 500 nM. Consider “(2R,3R,4R,5R)-2-(4-aminopyrrolo[2,1-f][1,2,4]triazin-7-yl)-2-cyano-5-((((R)-(((S)-1,4-bicyclopentyloxy-1,4-dioxobutan-2-yl)amino)(phenoxy)phosphoryl)oxy)methyl)tetrahydrofuran-3,4-diyl dipropionate [Compound 59a]”, for which the EC50 under setting [2] is 200 to 500 nM. Regarding `CC(C)OC(=O)OCOP(=O)(OCOC(=O)OC(C)C)OC[C@H]1O[C@@](C#N)(c2ccc3c(N)ncnn23)[C@H](OC(=O)C(C)C)[C@@H]1OC(=O)C(C)C` [Compound 19, (2R,3R,4R,5R)-2-(4-aminopyrrolo[2,1-f][1,2,4]triazin-7-yl)-5-((((bis(((isopropoxycarbonyl)oxy)methoxy))phosphoryl)oxy)methyl)-2-cyanotetrahydrofuran-3,4-diyl bis(2-methylpropionate)], the EC50 under setting [1] is 200 to 500 nM. Turning to “(2R,3R,4R,5R)-2-(4-aminopyrrolo[2,1-f][1,2,4]triazin-7-yl)-2-cyano-5-((((R)-(((S)-1,4-dicyclobutoxy-1,4-dioxobutan-2-yl)amino)(phenoxy)phosphoryl)oxy)methyl)tetrahydrofuran-3,4-diyl diacetate [Compound 55a]”, the EC50 under setting [2] fell in the range of 100 to 200 nM.

Broadly, the EC50 is the concentration giving half of the maximal effect.
